Assay results from patent publication US5554542A, “Immunoassay for isothiazolones” (Rohm and Haas Company, priority 1993, dated 1996).

Test system: antibodies in mouse serum
Assay: Competitive inhibition ELISA (CIEIA) screening of mouse sera for isothiazolone antibodies
Type: binding, BALB/c mice
Conditions: for % Inhibition: inhibitor final 1 ppm, b98 says 10^-4 M; for Reactivity of serum antibodies toward inhibitor: serum of mouse 1E, immunized with 573-THY
Experimental: Blood samples were taken from the mice immunized in the above example. The sera were separated from the red blood cells by centrifugation. The sera were then screened for activity using competitive inhibition ELISA (CIEIA). Ninety-six well polystyrene EIA ([…]) plates were coated with 100 μl of 651 conjugated to BSA (651-BSA), 651 conjugated to THY (651-THY), 573 conjugated to BSA (573-BSA), or 573 conjugated to THY (573-THY) for at least two hours at room temperature or 16 hours at 4° C. Unbound material was washed from the wells with five washes of PBS-T. The wells then received 50 μl of buffer alone (PBS-T) or inhibitors, either 651 or 573, each diluted to 2 ppm in buffer. The wells then received 50 μl of mouse serum, so that each serum was reacted with either buffer, 651 or 573 (inhibitors). […] The wells were incubated for 30-60 minutes at room temperature. They were then washed five times with PBS-T to remove unbound material and each well then received 100 μl of a 1 μg/ml solution of biotinylated horse anti-mouse IgG (Vector Laboratories, Burlingame, Calif.), and the assay continued as described for the ELISA, supra.
If the antibodies in a serum were reactive with one or both of the inhibitors in solution in the wells, the antibody molecules, or a percentage of the antibody molecules, would bind to the inhibitors, and would therefore form an antibody-inhibitor complex which would stay in solution and be removed from the plate during the washing step. In such a case, the binding of the antibody to the inhibitor would reduce the number of antibody molecules available to bind to the coating antigen, 651-BSA. Because fewer antibody molecules are attached to the 651-BSA, there is a reduction in the number of biotinylated horse anti-mouse IgG molecules bound, resulting in fewer molecules of avidin-peroxidase complex being bound, resulting in reduced hydrolysis of the substrate, leading ultimately to lower absorbances. In all cases, the inhibitor concentration was 10^-4 M.

[1] = mouse 1D serum, immunogen 573-BSA, coating conjugate 573-THY
[2] = mouse 1D serum, immunogen 573-BSA, coating conjugate 651-THY
[3] = mouse 1E serum, immunogen 573-THY, coating conjugate 573-BSA
[4] = mouse 1E serum, immunogen 573-THY, coating conjugate 651-BSA
[5] = mouse 2D serum, immunogen 573-BSA, coating conjugate 651-THY
[6] = mouse 2E serum, immunogen 573-THY, coating conjugate 573-BSA
[7] = mouse 2E serum, immunogen 573-THY, coating conjugate 651-BSA

| SMILES | % Inhibition [1] [%] | % Inhibition [2] [%] | % Inhibition [3] [%] | % Inhibition [4] [%] | % Inhibition [5] [%] | % Inhibition [6] [%] | % Inhibition [7] [%] | Reactivity of serum antibodies toward inhibitor |
| --- | --- | --- | --- | --- | --- | --- | --- | --- |
| Cn1sccc1=O [compound 573, 2-methyl-3-isothiazolone] | 12 | 0 | 21 | 28 | 0 | 10 | 12 | reactive |
| Cn1sc(Cl)cc1=O [compound 651, 5-chloro-2-methyl-3-isothiazolone] | 0 | 10 | 44 | 34 | 12 | 12 | 7 | reactive |
